Results as given in US20250195502A1, “APPLICATION OF TETRACYCLIC COMPOUND IN TREATMENT OF TUMORS” (SHANGHAI SHIJIANG BIOTECHNOLOGY CO., LTD, priority 2022, published 2025).
Read-outs that look alike come from different tables or passages of the source.

Tests used:
Assay type in all cases: cell-based
[1] = tested on: sh-DNMT1 NCI-H82 cell (DNMT1 knocked down NCI-H82); experiment: Cell viability assay (Promega CellTiter-Glo), inhibitory effect on sh-DNMT1 NCI-H82 cell; conditions: Homo sapiens, NCI-H82 with DNMT1 knocked down by shRNA
Procedure: (§1) The role of expression level of NNMT gene and DNMT1 in the sensitivity of NCI-H82 cell to the compounds prepared in the Examples of the present invention was determined
(§2) The expression of NNMT protein in NCI-H82 cell was overexpressed by inserting the NNMT gene into NCI-H82 cell using a viral vector, and the NNMT protein-overexpressing NCI-H82 cell (ov-NNMT NCI-H82 cell) was obtained. The expression of DNMT1 in NCI-H82 cell was knocked down transfecting (the by shRNA nucleotide sequence of shRNA was […] TTTTTG (SEQ ID No: 2)) using a viral vector, and the NCI-H82 cell with low expression of DNMT1 protein (sh-DNMT1 NCI-H82 cell) was obtained. The control NCI-H82 cell (Con-NCI-H82 cell) was obtained by transfecting NCI-H82 cell with empty virus vector without carrying NNMT gene and shRNA. The expressing content of NNMT protein and DNMT1 protein in the Con-NCI-H82 cell, the expressing content of NNMT protein in the ov-NNMT NCI-H82 cell, and the expressing content of DNMT1 protein in the sh-DNMT1 NCI-H82 cell were detected using Western Blot assay (as shown in FIG. 15 and FIG. 16), it could be seen from FIG. 15 and FIG. 16 that the NNMT protein was overexpressed in the ov-NNMT NCI-H82 cell and the expression of DNMT1 protein was knocked down (i.e, low expression) in the sh-DNMT1 NCI-H82 cell compared with the expression level of NNMT protein and DNMT protein in the Con-NCI-H82 cell.

[2] = tested on: ov-NNMT NCI-H82 cell (NNMT protein-overexpressing NCI-H82); experiment: Cell viability assay (Promega CellTiter-Glo), inhibitory effect on ov-NNMT NCI-H82 cell; conditions: Homo sapiens
Procedure: as §1, §2

[3] = tested on: 786-O (clear cell renal cell adenocarcinoma cell); experiment: Cell viability assay (Promega CellTiter-Glo), inhibitory effect on 786-O; conditions: Homo sapiens, 786-0, 72 h, 3 days of culture
Procedure: (§3) The inhibitory effect of the compounds prepared in the Examples of the present invention on various tumor cell lines was detected using cell viability assay reagent.
(§4) Cell viability was detected using the Promega CellTiter-Glo kit, cell viability was determined by directly measuring intracellular ATP content. In the experiment, the ICso value of the compounds prepared in the Examples of the present invention on various tumor cell lines was detected.
(§5) Each tumor cell was cultured in relevant medium. After cell passage, the gradient diluted compounds prepared in the Examples of the present invention was added. After 3 days of culture, the relevant IC50 (50% inhibiting concentration) was measured. The name, source and culture conditions of each tumor cell line were as follows:
Cell line 786-0 (ATCC, No. CRL-1932) was cultured in 10% fetal bovine serum-containing RPMI1640 medium (+P/S).

[4] = tested on: Con-NCI-H82 cell (NCI-H82 transfected with empty virus vector); experiment: Cell viability assay (Promega CellTiter-Glo), inhibitory effect on Con-NCI-H82 cell; conditions: Homo sapiens; NCI-H82 transfected with empty virus vector (control); CellTiter-Glo; read-out: inhibitory effect on Con-NCI-H82 (IC50)
Procedure: as §1, §2

[5] = tested on: SW48 (human colon adenocarcinoma cell); experiment: Cell viability assay (Promega CellTiter-Glo), inhibitory effect on SW48; conditions: 72 h, 3 days of culture
Procedure: as §3, §4, §5
Cell line SW48 (ATCC, No. CCL-231) was cultured in 10% fetal bovine serum-containing Leibovitz's L-15 medium (+P/S).

[6] = tested on: MDA-MB-453 (breast cancer cell); experiment: Cell viability assay (Promega CellTiter-Glo), inhibitory effect on MDA-MB-453; conditions: Homo sapiens, 72 h, 3 days of culture
Procedure: as §3, §4, §5
Cell line MDA-MB-453 (ATCC, No. HTB-131) was cultured in 10% fetal bovine serum-containing Leibovitz's L-15 medium (+P/S).

[7] = tested on: D341 Med (cerebellar medulloblastoma cell); experiment: Cell viability assay (Promega CellTiter-Glo), inhibitory effect on D341 Med; conditions: Homo sapiens, 72 h, 3 days of culture, read-out: inhibitory effect on brain cell line D341 Med (IC50)
Procedure: (§6) The inhibitory effect of the compounds prepared in the Examples of the present invention on various brain tumor cell lines was detected using cell viability assay reagent.
(§7) Cell viability was detected using the Promega CellTiter-Glo kit, cell viability was determined by directly measuring intracellular ATP content. In the experiment, the IC50 value of the compounds prepared in the Examples of the present invention on various brain tumor cell lines was detected.
as §5
Cell line D341 Med (ATCC, No. HTB-187) was cultured in 20% fetal bovine serum-containing EMEM medium (+P/S).

[8] = tested on: CFPAC-1 (human pancreatic cancer cell); experiment: Cell viability assay (Promega CellTiter-Glo), inhibitory effect on CFPAC-1; conditions: 72 h, 3 days of culture
Procedure: as §3, §4, §5
Cell line CFPAC-1 (ATCC, No. CRL-1918) was cultured in 10% fetal bovine serum-containing IMDM medium (+P/S).

[9] = tested on: GB-1 (human brain glioblastoma cell); experiment: Cell viability assay (Promega CellTiter-Glo), inhibitory effect on GB-1; conditions: 72 h, 3 days of culture
Procedure: as §3, §4, §5
Cell line GB-1 (JCRB, No. IFO50489) was cultured in 10% fetal bovine serum-containing DMEM medium (+P/S).
as §6, §7

[10] = tested on: NB-1 (brain neuroblastoma cell); experiment: Cell viability assay (Promega CellTiter-Glo), inhibitory effect on NB-1; conditions: Homo sapiens, 72 h, 3 days of culture, read-out: inhibitory effect on brain cell line NB-1 (IC50)
Procedure: as §6, §7, §5
Cell line NB-1 (ATCC, No. HTB-131) was cultured in 10% fetal bovine serum-containing Leibovitz's L-15 medium (+P/S).

[11] = tested on: NCI-H82 (human small cell lung cancer cell); experiment: Cell viability assay (Promega CellTiter-Glo), inhibitory effect on NCI-H82; conditions: 72 h, 3 days of culture
Procedure: as §3, §4, §5
Cell line NCI-H82 (ATCC, No. HTB-175) was cultured in 10% fetal bovine serum-containing RPMI1640 medium (+P/S).

[12] = tested on: G-401 (human renal carcinoma Wilms cell); experiment: Cell viability assay (Promega CellTiter-Glo), inhibitory effect on G-401; conditions: 72 h, 3 days of culture
Procedure: as §3, §4, §5
Cell line G-401 (ATCC, No. CRL-1441) was cultured in 10% fetal bovine serum-containing McCoy's 5a medium (+P/S).

[13] = tested on: SF126 (human glioblastoma multiforme cell); experiment: Cell viability assay (Promega CellTiter-Glo), inhibitory effect on SF126
Procedure: as §3, §4, §5
Cell line SF126 (JCRB, No. IFO50286) was cultured in 10% fetal bovine serum-containing EMEM medium (+P/S).
as §6, §7

[14] = tested on: Kelly (brain neuroblastoma cell); experiment: Cell viability assay (Promega CellTiter-Glo), inhibitory effect on Kelly; conditions: Homo sapiens, 72 h, 3 days of culture, read-out: inhibitory effect on brain cell line Kelly (IC50)
Procedure: as §6, §7, §5
Cell line Kelly (ECACC, No. 92110411) was cultured in 10% fetal bovine serum and 2 mM glutamine-containing RPMI1640 medium.

[15] = Table 3, read-out: inhibitory effect on GB-1 (IC50)
[16] = Table 4, read-out: inhibitory effect on brain cell line GB-1 (IC50)
[17] = 72 h, SF-126, 3 days of culture, Table 3, read-out: inhibitory effect on SF-126 (IC50)
[18] = SF-126, 72 h, SF126, 3 days of culture, Table 4, read-out: inhibitory effect on brain cell line SF126 (IC50)

SMILES	IC50 [1] [nM]	IC50 [2] [nM]	IC50 [3] [nM]	IC50 [4] [nM]	IC50 [5] [nM]	IC50 [6] [nM]	IC50 [7] [nM]	IC50 [8] [nM]	IC50 [9, 15] [nM]	IC50 [9, 16] [nM]	IC50 [10] [nM]	IC50 [11] [nM]	IC50 [12] [nM]	IC50 [13, 17] [nM]	IC50 [13, 18] [nM]	IC50 [14] [nM]
CCCCc1c2c(OC)c(OC)cc(Br)c2cc2[n+]1CCc1cc3c(cc1-2)OCO3 [compound AB31711]	1900	1430	3970	650	820	500	920	9470	5320	5320	240	650	720	5210	5210	880
COc1ccc2cc3[n+](cc2c1OCCCCOc1ccccc1)CCc1cc2c(cc1-3)OCO2 [compound AB31718]	1360	680	2690	290	250	90	180	5290	3410	3410	20	290	370	4250	4250	660
COc1ccc2cc3[n+](cc2c1OCCCCCCCl)CCc1cc2c(cc1-3)OCO2 [compound AB31731]	1660	1320	3760	520	620	220	340	8980	6640	6640	70	520	770	6190	6190	860
COc1ccc2cc3[n+](cc2c1OC/C=C(\C)CCC=C(C)C)CCc1cc2c(cc1-3)OCO2 [compound AB31737]	940	730	2340	240	200	90	400	4600	2660	2660	20	240	170	4140	4140	360
CCCCCCCCNc1c(OC)ccc2cc3[n+](cc12)CCc1cc2c(cc1-3)OCO2 [compound AB31739]	1550	950	3050	450	430	370	860	6070	3970	3970	90	450	530	3570	3570	640

Continued, values first:

IC50 [1] [nM]	IC50 [2] [nM]	IC50 [3] [nM]	IC50 [4] [nM]	IC50 [5] [nM]	IC50 [6] [nM]	IC50 [7] [nM]	IC50 [8] [nM]	IC50 [9, 15] [nM]	IC50 [9, 16] [nM]	IC50 [10] [nM]	IC50 [11] [nM]	IC50 [12] [nM]	IC50 [13, 17] [nM]	IC50 [13, 18] [nM]	IC50 [14] [nM]	SMILES
3410	2960	7630	1170	1420	620	1370	13000	8270	8270	290	1170	1120	10200	10200	1240	CCCCc1c2c(OC)c(OC)ccc2cc2[n+]1CCc1cc3c(cc1-2)OCO3 [compound AB31707]
1310	920	9160	400	800	430	360	7170	10000	10000	140	400	1380	10800	10800	1260	COc1ccc2cc3[n+](cc2c1OCCCBr)CCc1cc2c(cc1-3)OCO2 [compound AB31721]
8930	5980	26200	2810	2060	1410	2890	24400	40400	40400	980	2810	3940	20600	20600	2520	CCC(CC)C(=O)Oc1c(OC)ccc2cc3[n+](cc12)CCc1cc2c(cc1-3)OCO2 [compound AB31722]
1570	1550	5130	490	340	200	530	12400	7740	7740	80	490	930	7770	7770	840	COc1ccc2cc3[n+](cc2c1NCCc1ccccc1)CCc1cc2c(cc1-3)OCO2 [compound AB31740]
910	780	3930	320	420	320	670	4950	3210	3210	210	320	320	3530	3530	460	COc1ccc2c(Cc3ccc(C(C)(C)C)cc3)c3[n+](cc2c1OC)CCc1cc2c(cc1-3)OCO2 [compound AB31748]
3820	3320	15200	880	650	680	2820	29900	17500	17500	150	880	740	16000	16000	1500	CCCCc1c2[n+](cc3c(OC)c(OC)ccc13)CCc1cc3c(cc1-2)OCO3 [compound AB31757]
